For experiment [1], the system named is P. aeruginosa (1051575). As to the kind of experiment: Potentiation of the doxycycline activity at 2 μg/mL. The following applies: in combination with doxycycline 2 μg/mL; 24 h, 37°. It counts as cell-based, Pseudomonas aeruginosa.
For a further experiment, the system named is S. aureus ATCC25923. The experiment can be described thus: MIC determination by microplate dilution, S. aureus human strain. In kind it is cell-based, Staphylococcus aureus. The following applies: Staphylococcus aureus, ATCC25923, Gram-positive, Mueller-Hinton medium, 24 h, 37° C. Here is the method: (§1) 1) Preparation of the Preculture
(§2) A negative control (2 mL of sterile culture medium)
(§3) A positive control (1940 μL of culture medium+40 μL of DMSO+20 μL of bacterial suspension) from a thawed biological strain (the biological strains are stored at −80° C. in glycerol).
(§4) The tubes were incubated at 37° C. for 24 hours at 100 rpm.
(§5) The microorganisms were handled under a type L2 laboratory fume cupboard and, before any handling, a UV cycle was programmed and only sterile material was used. […] The chemical compounds to be tested were prepared in a DMSO/methanol mixture (50/50) at a concentration of 5 mg/mL.
(§6) 2) Preparation of the Microplate for the Determination of the Minimum Inhibitory Concentration (MIC)
(§7) After 24 hours of incubation, a measurement of the optical density was taken using a spectrophotometer at 600 nm, collecting 100 μL of the bacterial suspension diluted in 900 μL of the sterile culture medium. This test required the use of a 96-well plate and the required volume of the microbial suspension to be seeded was calculated for an OD corresponding to a value equal to 0.01 in each well. In this plate, the first line corresponded to the negative control (195 μL of sterile culture medium in each well), the second line to the positive control (seeded culture medium supplemented with 2% of DMSO), the third line was loaded twice with bacterial suspension, 8 μL of test product were placed in each well. Thereafter, a 0.5 cascade dilution was performed from this line.
(§8) The first column served as inhibition control. A sterile filter was then placed on the microplate, allowing the passage of gases but not of contaminants. The microplate was incubated at 37° C. under a humid atmosphere for 24 hours.
(§9) NB: The medium used is Mueller-Hinton (MH) medium for bacteria. All the tests were performed in duplicate.
(§10) 4) Reading of the Results
(§11) After incubation, the filter was replaced with a transparent film, and an OD reading was then taken in an iEMS plate spectrophotometer at 620 nm. Calculation of the minimum inhibitory concentration (MIC) was performed.

The subject of another experiment is E. coli ATCC28922. As to the kind of experiment: MIC determination by microplate dilution, E. coli human strain. In kind it is cell-based, Escherichia coli. The following applies: Escherichia coli, ATCC28922, Gram-negative, Mueller-Hinton medium, 24 h, 37° C. Here is the method: as §1, §2, §3, §4, §5, §6, §7, §8, §9, §10, §11
The next experiment deals with S. intermedius (1051997). The experiment can be described thus: MIC determination by microplate dilution, S. intermedius animal strain. In kind it is cell-based, Staphylococcus intermedius. The following applies: Staphylococcus intermedius, Gram-positive, Mueller-Hinton medium, 24 h, 37° C. How it is done: as §1, §2, §3, §4, §5, §6, §7, §8, §9, §10, §11
Experiment [2] has as its system P. aeruginosa (1051575). The experiment can be described thus: MIC determination by microplate dilution, P. aeruginosa animal strain. The conditions noted are these: Pseudomonas aeruginosa, Gram-negative, Mueller-Hinton medium, 24 h, 37° C. In kind it is cell-based, Pseudomonas aeruginosa. How it is done:
as §1, §2, §3, §4, §5, §6, §7, §8, §9, §10, §11

The next experiment concerns E. faecalis ATCC29212. As to the kind of experiment: MIC determination by microplate dilution, E. faecalis human strain. In kind it is cell-based, Enterococcus faecalis. The following applies: Enterococcus faecalis, ATCC29212, Gram-positive, Mueller-Hinton medium, 24 h, 37° C. How it is done:
as §1, §2, §3, §4, §5, §6, §7, §8, §9, §10, §11

The next experiment relates to S. aureus (340). As to the kind of experiment: MIC determination by microplate dilution, S. aureus animal strain. In kind it is cell-based, Staphylococcus aureus. The conditions noted are these: Staphylococcus aureus, Gram-positive, Mueller-Hinton medium, 24 h, 37° C. Here is the method:
as §1, §2, §3, §4, §5, §6, §7, §8, §9, §10, §11

The next experiment has as its system CHO-K1 cells. The experiment can be described thus: WST1 cytotoxicity test on CHO-K1 cells. It counts as cell-based, Chinese hamster. The conditions noted are these: Cricetulus griseus, CHO-K1, 24 h, read-out: IC50 (μg/mL) CHO. Here is the method: Test WST1 was used to measure the cytotoxic activity of the products. This is a colorimetric test which makes it possible to measure the viability and the degree of cell proliferation. It is based on cleavage of the colorless tetrazolium salts WST-1 (4-[3-(4-iodophenyl)-2-(4-nitrophenyl)-2H-5-tetrazolio]-1,3-benzene disulfonate) with mitochondrial dehydrogenases to the yellow-colored formazan derivative, which may be quantified by spectrophotometry at 420-480 nm.
The WST1 test was performed on Chinese hamster ovary cells. The CHO-K1 cells (ATCC, USA) are kept in culture on McCoy's 5A medium supplemented with 10% fetal calf serum, 2 mM of L-glutamine and a mixture of penicillin-streptomycin (100 U/ml: 10 μg/mL). The culture is incubated at 37° C. under an atmosphere enriched in CO2 (5%), and subcultured every two days.
The cells are transferred into 96-well plates (25 000 cells/mL) in whole McCoy's 5A medium, and maintained for 24 hours at 37° C. under a humid atmosphere enriched in CO2 (5%). Increasing concentrations of test products are added to the wells in double tests and 8 growth controls containing the cells in the medium alone are included in each series of tests. After 24 hours at 37° C. (5% CO2), the culture medium is removed, the cells are rinsed in phosphate buffer (PBS) and 50 μL of PBS containing 10% of reagent WST1 are added to each well. After 20 minutes of incubation at 37° C., the results are read by spectrophotometry at 450 nm.
The results are expressed in dose-response relationships, modeled by nonlinear regression analysis using the TableCurve software. The 50% inhibitory concentration (IC50) represents the concentration of product that is capable of reducing the cell viability by 50%.

The next experiment has as its system P. aeruginosa ATCC27853. The experiment can be described thus: MIC determination by microplate dilution, P. aeruginosa human strain. It counts as cell-based, Pseudomonas aeruginosa. The following applies: Pseudomonas aeruginosa, ATCC27853, Gram-negative, Mueller-Hinton medium, 24 h, 37° C. Here is the method: as §1, §2, §3, §4, §5, §6, §7, §8, §9, §10, §11

The test system of the next experiment is E. coli (1956). As to the kind of experiment: MIC determination by microplate dilution, E. coli animal strain. In kind it is cell-based, Escherichia coli. The conditions noted are these: Escherichia coli, Gram-negative, Mueller-Hinton medium, 24 h, 37° C. Here is the method:
as §1, §2, §3, §4, §5, §6, §7, §8, §9, §10, §11

≈ marks a conversion by molar mass, not a printed value.

By MIC is commonly meant the least concentration at which growth counts as inhibited. Read a low MIC as greater potency. For the compound `CC(C)OC(=O)CC[C@@H](C)[C@H]1CCC2C3CCC4C[C@@H](NCCCN(CCCN)CCCN)CC[C@]4(C)C3C[C@H](O)[C@@]21C` (stereo partly drawn) [(28), isopropyl 3β-(tris(3-aminopropyl)amine)deoxycholate], in the experiment on P. aeruginosa (1051575) [1], the “MIC - P. aeruginosa (1051575): content of compound of formula (I) to restore the doxycycline activity (at 2 μg/mL)” value (“MIC - P. aeruginosa (1051575): content” for short) is 2 mg/L. Also, the MIC was determined as 15 mg/L (≈ 24.8 µM) with S. aureus ATCC25923; 15 mg/L (≈ 24.8 µM) against E. coli ATCC28922; 8 mg/L (≈ 13.2 µM) with S. intermedius (1051997); 30 mg/L (≈ 49.6 µM) in the experiment with P. aeruginosa (1051575) [2]; 30 mg/L (≈ 49.6 µM) against E. faecalis ATCC29212; 15 mg/L (≈ 24.8 µM) in the experiment on S. aureus (340). Further, the MIC in the experiment on P. aeruginosa ATCC27853 and against E. coli (1956) was 30 mg/L (≈ 49.6 µM) each time. Further, in the experiment on CHO-K1 cells, the IC50 came to 85 µg/mL (≈ 141 µM).

For the compound `COC(=O)CC[C@@H](C)[C@H]1CCC2C3C(CC[C@@]21C)[C@@]1(C)CC[C@H](NCCCN(C)CCCN)CC1C[C@H]3O` (stereo partly drawn) [(37), methyl 3β-(bis(3-aminopropyl)methylamine)chenodeoxycholate], the “MIC - P. aeruginosa (1051575): content” value in the experiment with P. aeruginosa (1051575) [1] amounted to 3 mg/L. Further, the MIC against S. aureus ATCC25923 was 27 mg/L (≈ 50.6 µM); with E. coli ATCC28922, 27 mg/L (≈ 50.6 µM); against S. intermedius (1051997), greater than 107 mg/L; against P. aeruginosa (1051575) [2], 13 mg/L (≈ 24.4 µM); against E. faecalis ATCC29212, 13 mg/L (≈ 24.4 µM); against S. aureus (340), 27 mg/L (≈ 50.6 µM). Besides, the values for the MIC in the experiment on P. aeruginosa ATCC27853 and against E. coli (1956) were 27 mg/L (≈ 50.6 µM) and 13 mg/L (≈ 24.4 µM), respectively. The IC50 with CHO-K1 cells is 115 µg/mL (≈ 215 µM).

For the compound `CC(C)OC(=O)CC[C@@H](C)[C@H]1CCC2C3C(CC[C@@]21C)[C@@]1(C)CC[C@H](NCCCN(C)CCCN)CC1C[C@H]3O` (stereo partly drawn) [(41), isopropyl 3β-(bis(3-aminopropyl)methylamine)chenodeoxycholate], in the experiment on P. aeruginosa (1051575) [1], the “MIC - P. aeruginosa (1051575): content” value is 4 mg/L. Also, the MIC in the experiment on S. aureus ATCC25923 came out at 14 mg/L (≈ 24.9 µM); against E. coli ATCC28922 it was 56 mg/L (≈ 99.7 µM); against S. intermedius (1051997), 7 mg/L (≈ 12.5 µM); in the experiment on P. aeruginosa (1051575) [2], 28 mg/L (≈ 49.8 µM); against E. faecalis ATCC29212, 28 mg/L (≈ 49.8 µM); against S. aureus (340), 14 mg/L (≈ 24.9 µM). For the same compound, the MIC in the experiment with P. aeruginosa ATCC27853 and with E. coli (1956) was 28 mg/L (≈ 49.8 µM) throughout. Besides, the IC50 in the experiment with CHO-K1 cells is 4 µg/mL (≈ 7.12 µM).

With `COC(=O)CC[C@@H](C)[C@H]1CCC2C3C(CC[C@@]21C)[C@@]1(C)CC[C@H](NCCNCCNCCNCCNCCN)CC1C[C@@H]3O` (stereo partly drawn) [(50), methyl 3β-(pentaethylenehexamine)ursodeoxycholate], the “MIC - P. aeruginosa (1051575): content” value in the experiment with P. aeruginosa (1051575) [1] was found to be 16 mg/L. For the same compound, the MIC against S. aureus ATCC25923 is 30 mg/L (≈ 48.3 µM); against E. coli ATCC28922, 60 mg/L (≈ 96.6 µM); in the experiment with S. intermedius (1051997), 8 mg/L (≈ 12.9 µM); in the experiment with P. aeruginosa (1051575) [2] it was 60 mg/L (≈ 96.6 µM); in the experiment on E. faecalis ATCC29212, 60 mg/L (≈ 96.6 µM); against S. aureus (340), 30 mg/L (≈ 48.3 µM). For the same compound, the MIC against P. aeruginosa ATCC27853 and against E. coli (1956) was 60 mg/L (≈ 96.6 µM) each time. For the same compound, in the experiment on CHO-K1 cells, the IC50 turned out to be 45 µg/mL (≈ 72.5 µM).

Regarding `CC(C)OC(=O)CC[C@@H](C)[C@H]1CCC2C3C(CC[C@@]21C)[C@@]1(C)CC[C@H](NCCCNCCCNCCCN)CC1C[C@@H]3O` (stereo partly drawn) [(51), isopropyl 3β-norsperminoursodeoxycholate], the “MIC - P. aeruginosa (1051575): content” value in the experiment on P. aeruginosa (1051575) [1] was 2 mg/L. The MIC in the experiment with S. aureus ATCC25923 came out at 15 mg/L (≈ 24.8 µM); in the experiment with E. coli ATCC28922, 30 mg/L (≈ 49.6 µM); with S. intermedius (1051997), 4 mg/L (≈ 6.61 µM); in the experiment on P. aeruginosa (1051575) [2], 30 mg/L (≈ 49.6 µM); against E. faecalis ATCC29212, 62 mg/L (≈ 102 µM); in the experiment with S. aureus (340), 15 mg/L (≈ 24.8 µM). Also, the MIC worked out at 30 mg/L (≈ 49.6 µM) in the experiment with P. aeruginosa ATCC27853 and 62 mg/L (≈ 102 µM) with E. coli (1956). In addition, the IC50 in the experiment on CHO-K1 cells is 30 µg/mL (≈ 49.6 µM).
